Tests used:
NF-κB = NF-κB activation by TPA in human cells expressing very low levels of PPAR-γ; format: cell-based; settings: human cells with very low PPAR-γ, data not shown
JNK1 = molecular target: T1, JNK1 (Homo sapiens, UniProt P45983); test: In vitro JNK1 kinase activity; format: biochemical; settings: in vitro incubation with up to 60 μM
T1 construct: Endogenous IKK, HA-tagged IKKα, endogenous JNK1, and p38 activities were determined; endogenous in cells
Protocol: Cell lysates were incubated with anti-IKKα (Pharmingen), anti-HA (12CA5; Pharmingen), anti-JNK1 (333.8; Pharmingen), or anti-p38 (New England Biolabs) for 2 hours. Then, 15 μl protein A-Sepharose (Sigma) were added and the mixture was allowed to incubate for 1 hour. After extensive washing, kinase assays were performed as known in the art (See e.g., DiDonato et al., Nature 388:548-554 [1997]). Endogenous IKK, HA-tagged IKKα, endogenous JNK1, and p38 activities were determined with GST-1κBα(1-54), GST-c-Jun(1-79), and GST-ATF2 as substrates.
Endogenous IKK was immunoprecipitated from TNFα-stimulated HeLa cells and the kinase activity determined in the presence of different concentrations of PGA1 (the results of which are shown in FIG. 2B) or 15dPGJ2 (the results of which are shown in FIG. 2C).

activated monocytes = settings: cited from earlier work
IKKβ(C179A) = molecular target: T2, IKKβ(C179A) (Homo sapiens, UniProt O14920, C179A); test: IKKβ(C179A) coexpressed with NIK in HeLa cells, kinase activity; format: cell-based; settings: HeLa cells coexpressing NIK, treated 2 hours
T2 sequence (O14920 1-756 C179A): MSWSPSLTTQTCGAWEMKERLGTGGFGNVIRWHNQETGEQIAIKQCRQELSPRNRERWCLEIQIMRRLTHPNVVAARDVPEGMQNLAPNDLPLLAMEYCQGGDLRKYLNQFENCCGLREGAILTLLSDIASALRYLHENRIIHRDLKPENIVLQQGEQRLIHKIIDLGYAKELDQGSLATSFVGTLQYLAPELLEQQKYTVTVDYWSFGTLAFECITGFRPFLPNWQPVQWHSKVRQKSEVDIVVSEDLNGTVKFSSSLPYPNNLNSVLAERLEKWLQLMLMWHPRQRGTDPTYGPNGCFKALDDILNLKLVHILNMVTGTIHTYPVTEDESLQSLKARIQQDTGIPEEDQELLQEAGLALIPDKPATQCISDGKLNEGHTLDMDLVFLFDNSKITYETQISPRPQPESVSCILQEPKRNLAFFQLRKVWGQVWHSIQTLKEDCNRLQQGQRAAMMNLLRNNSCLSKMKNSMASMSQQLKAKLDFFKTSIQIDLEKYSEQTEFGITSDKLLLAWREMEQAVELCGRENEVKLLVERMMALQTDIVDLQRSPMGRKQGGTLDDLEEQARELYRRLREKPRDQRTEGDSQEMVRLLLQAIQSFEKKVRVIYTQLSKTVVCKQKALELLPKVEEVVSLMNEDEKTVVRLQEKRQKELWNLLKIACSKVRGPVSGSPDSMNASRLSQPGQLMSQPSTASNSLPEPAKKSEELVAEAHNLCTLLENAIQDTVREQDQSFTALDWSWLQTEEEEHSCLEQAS
Protocol: In an experiment to determine whether this cysteine is critical for sensitivity to cyPG, cysteine was replaced with an alanine using site-directed mutagenesis. In these experiments, HeLa cells were transiently transfected with expression vectors for IKKβ(WT) or IKKβ(C179A) with or without a NIK expression vector. After 16 hours, NIK transfected cells were treated for 2 hours with 15dPGJ2. Kinase activity (KA) and expression (IB:HA) were subsequently determined. Thus, wild-type (WT) IKKβ and mutant IKKβ (i.e., IKKβ(C179A)) were coexpressed with NIK in HeLa cells and their sensitivity to 15dPGJ2 examined. While both constructs were equally responsive to NIK, resulting in similar levels of kinase activity, the IKKβ(C179A) mutant was resistant to inhibitor (See, FIG. 6C).

IKK = IKK (Homo sapiens, UniProt O14920+O15111); test: MEKK1-induced IKK activity in Jurkat cells; format: cell-based; settings: data not shown
Protocol: Cells used in the experiments described herein were cultured in either RPMI 1640 (Jurkat cells) or DMEM (HeLa and COS cells), supplemented with 10% FBS and antibiotics. Cells were stimulated with either 25 ng/ml TPA, 20 ng/ml recombinant TNFα, or 10 ng/ml interleukin 1β (Sigma). PGA1, 15dPGJ2, T×B2, LTB4, AA and other PGs (Cayman) dissolved in ethanol were used as well, as known in the art (See e.g., Rossi et al., 94:746-750 [1997]). Controls received equal amounts of ethanol. Transfections were performed using Lipofectamine Plus (GIBCO) for HeLa and COS cells and DEAE-dextran (Sigma) for Jurkat cells. Xpress-tagged NIK, Xpress-tagged MEKK1, HA-tagged IKKα, and HA-tagged IKKβ were also used (See e.g., Zandi et al., Science 281:1360-1363 [1998]; and Delhase et al., Science 284:309-313 [1999]). COX2 and cPLA2 expression vectors were obtained from Dr. L. Feng (See also, Hirose et al., J. Am. Soc. Nephrol., 9:408-416 [1998]). PGD synthase was cloned from HT29 colon carcinoma cell line cDNA by PCR and subcloned into a pCDNA3 vector. […]
Cell lysates were incubated with anti-IKKα (Pharmingen), anti-HA (12CA5; Pharmingen), anti-JNK1 (333.8; Pharmingen), or anti-p38 (New England Biolabs) for 2 hours. […] Endogenous IKK, HA-tagged IKKα, endogenous JNK1, and p38 activities were determined with GST-1κBα(1-54), GST-c-Jun(1-79), and GST-ATF2 as substrates.

T1 sequence (P45983 whole entry): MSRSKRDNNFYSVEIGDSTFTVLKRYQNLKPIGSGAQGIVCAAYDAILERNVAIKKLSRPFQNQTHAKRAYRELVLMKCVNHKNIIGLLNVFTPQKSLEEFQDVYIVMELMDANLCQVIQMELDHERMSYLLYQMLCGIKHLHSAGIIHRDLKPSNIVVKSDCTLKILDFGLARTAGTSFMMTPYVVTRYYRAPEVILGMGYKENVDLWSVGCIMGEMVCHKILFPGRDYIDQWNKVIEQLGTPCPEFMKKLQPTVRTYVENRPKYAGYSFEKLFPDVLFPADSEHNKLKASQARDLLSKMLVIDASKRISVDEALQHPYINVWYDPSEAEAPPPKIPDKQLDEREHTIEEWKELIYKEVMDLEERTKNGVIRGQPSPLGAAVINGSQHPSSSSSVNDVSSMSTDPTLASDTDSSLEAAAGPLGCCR
IKK, sequence (O14920 whole entry): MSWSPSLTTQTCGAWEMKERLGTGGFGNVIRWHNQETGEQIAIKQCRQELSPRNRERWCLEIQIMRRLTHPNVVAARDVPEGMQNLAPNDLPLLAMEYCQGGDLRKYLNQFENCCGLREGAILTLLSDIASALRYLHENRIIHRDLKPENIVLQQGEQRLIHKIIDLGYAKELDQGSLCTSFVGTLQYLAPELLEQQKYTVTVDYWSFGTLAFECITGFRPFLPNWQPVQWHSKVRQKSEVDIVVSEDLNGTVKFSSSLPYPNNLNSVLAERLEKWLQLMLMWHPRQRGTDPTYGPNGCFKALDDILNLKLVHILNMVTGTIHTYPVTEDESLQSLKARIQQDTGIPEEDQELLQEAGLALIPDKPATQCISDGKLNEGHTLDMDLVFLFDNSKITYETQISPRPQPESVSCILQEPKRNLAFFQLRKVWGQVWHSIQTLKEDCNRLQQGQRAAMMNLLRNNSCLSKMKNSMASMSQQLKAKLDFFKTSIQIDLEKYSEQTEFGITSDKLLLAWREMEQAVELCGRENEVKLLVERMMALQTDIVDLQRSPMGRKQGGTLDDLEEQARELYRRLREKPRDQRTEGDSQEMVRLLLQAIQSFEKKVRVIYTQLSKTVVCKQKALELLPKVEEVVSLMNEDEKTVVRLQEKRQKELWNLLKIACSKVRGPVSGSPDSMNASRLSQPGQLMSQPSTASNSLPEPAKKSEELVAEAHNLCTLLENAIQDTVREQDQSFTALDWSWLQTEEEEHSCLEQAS
IKK, sequence (O15111 whole entry): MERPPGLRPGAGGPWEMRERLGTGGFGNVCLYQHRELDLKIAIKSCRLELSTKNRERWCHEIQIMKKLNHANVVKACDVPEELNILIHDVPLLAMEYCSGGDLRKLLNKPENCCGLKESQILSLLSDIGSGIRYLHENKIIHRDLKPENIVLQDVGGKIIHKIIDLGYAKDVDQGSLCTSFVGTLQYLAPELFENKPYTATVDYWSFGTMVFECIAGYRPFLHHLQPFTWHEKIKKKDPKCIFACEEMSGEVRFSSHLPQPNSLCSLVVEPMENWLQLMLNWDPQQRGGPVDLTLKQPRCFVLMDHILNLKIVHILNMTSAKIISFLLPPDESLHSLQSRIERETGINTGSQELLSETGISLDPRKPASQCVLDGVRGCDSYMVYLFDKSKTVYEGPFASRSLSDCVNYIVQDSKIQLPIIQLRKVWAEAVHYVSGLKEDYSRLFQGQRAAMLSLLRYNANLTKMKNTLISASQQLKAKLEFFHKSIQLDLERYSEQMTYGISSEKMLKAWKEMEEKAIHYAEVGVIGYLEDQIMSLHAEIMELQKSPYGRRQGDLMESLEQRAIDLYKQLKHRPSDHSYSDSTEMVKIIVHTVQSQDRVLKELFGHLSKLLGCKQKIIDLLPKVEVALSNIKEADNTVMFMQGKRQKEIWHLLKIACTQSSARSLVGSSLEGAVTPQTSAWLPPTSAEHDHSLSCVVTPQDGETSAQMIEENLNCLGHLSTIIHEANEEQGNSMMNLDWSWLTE
IKK, sequence (Q9Y6K9 whole entry partner): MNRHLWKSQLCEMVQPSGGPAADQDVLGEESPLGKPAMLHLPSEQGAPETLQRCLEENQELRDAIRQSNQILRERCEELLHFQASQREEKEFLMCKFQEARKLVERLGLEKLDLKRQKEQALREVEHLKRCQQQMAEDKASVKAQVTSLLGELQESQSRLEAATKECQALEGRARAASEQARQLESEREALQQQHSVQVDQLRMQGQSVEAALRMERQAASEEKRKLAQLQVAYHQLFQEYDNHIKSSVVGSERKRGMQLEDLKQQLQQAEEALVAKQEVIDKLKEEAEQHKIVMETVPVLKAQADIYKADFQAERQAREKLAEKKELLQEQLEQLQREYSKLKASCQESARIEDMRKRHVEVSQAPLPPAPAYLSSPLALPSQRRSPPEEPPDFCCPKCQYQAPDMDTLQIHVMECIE

Compound | inhibition of NF-κB activation by TPA (NF-κB) | inhibition of JNK1 activity in vitro (JNK1) | production of pro-inflammatory cytokines (activated monocytes) | sensitivity of IKKβ(C179A) kinase activity to inhibitor (IKKβ(C179A)) | effect on MEKK1-induced IKK activity (IKK)
CCCCC/C=C/C=C1/C(=O)C=C[C@@H]1C/C=C\CCCC(=O)O [15dPGJ2, 15-deoxy-Δ^12-14-PGJ2] | potent inhibitor | No significant inhibition | inhibits | resistant | –
CCCCC[C@H](O)/C=C/[C@H]1C=CC(=O)C1CCCCCCC(=O)O (some centres unmarked) [PGA1, prostaglandin A1] | – | – | – | – | inhibited

From patent publication US6649654B1, “Methods for identifying and using IKK inhibitors” (The Regents of the University of California, priority 1999, dated 2003)
